# Measurements from patent US20250130239A1, “PROTEIN DEGRADER” (University of Dundee, priority 2021, published 2025).
# What was measured:
# BromoTag-Brd2 = biological target: T1, BromoTag-Brd2 (Homo sapiens, UniProt O60885+P40337, L387A); test: Competition assay (inhibitor pre-treatment, then AGB1); assay type: cell-based; conditions: then 200 nM 46 for 3 h
# T1 construct: comprising residues 368-440 of human Brd4; Brd2 (endogenous protein, fusion partner in the same polypeptide); eGFP-P2A (upstream marker in the knock-in cassette) (N, cleaved yes); expressed in transfected cells; host or cells: HEK293, heterozygous CRISPR knock-in at the endogenous BRD2 locus
# Protocol: Competition Assay. Heterozygous BromoTag-Brd2 HEK293 cells were plated in six-well plates at a density of 5×10^5 cells per well in 2 mL DMEM media. […] After 1 h, 200 nM of AGB1 was added to the previously compound treated cells. After a following 3 h the cells were harvested for subsequent processing via western blot. Each treatment was performed in tandem to produce two technical repeats per condition. The 6 well plates were incubated for 4 h at 37° C. and 5% CO2 throughout the experiment.
# Western Blotting. All cells were harvested on ice with RIPA lysis, and extraction buffer (ThermoFisher Scientific, 89901) supplemented with protease inhibitor cocktail (Merck, 11697498001) and Benzonase® Nuclease (Sigma, E1014) before being store at −20° C. prior to use. Total protein quantity was determined using the BCA protein assay (#23225, Pierce, Rockford, Illinois). Protein concentration was determined using the BCA assay (ThermoFisher Scientific, 23225). Samples were then prepared and loaded onto NuPAGE™ 4-12% Bis-Tris Midi gels (ThermoFisher Scientific, WG1403A), followed by the transfer of the proteins onto nitrocellulose membranes (EMD Millipore). The membranes were blocked for 1 h prior to incubation with the primary antibodies using 5% Milk TBST. Membranes were probed for Brd2 (Abcam, Ab139690, 1:1000), Brd3 (Abcam, Ab50818, 1:4000), Brd4 (Abcam, Ab128874, 1:1000) or our polyclonal Brd4^BD2 L387A antibody. Following overnight incubation with the primary antibodies at 4° C., the membranes were incubated with secondary antibodies (Anti-rabbit, Abcam AB216773, 1:5000 or anti-mouse, Abcam AB216774, 1:5000) and hFAB™ Rhodamine Anti-Tubulin Antibody (Biorad, 12004165, 1:10000) for one h and then imaged with a Bio-Rad imager (LI-COR Biosciences). All western blots were analysed for band intensities using Image Lab from Bio-Rad (LI-COR, Biosciences). The data extracted from these blots were then plotted and analysed using Prism (v. 8.2.0, GraphPad).
# [1] = In vivo PK profiling of AGB1; set-up: species or system C57BL/6 male mice; conditions: SC (5 mg/kg), mice
# Protocol: In Vivo PK Profiling. Pharmacokinetic profiling was outsourced and undertaken by Shanghai ChemPartner Co., Ltd. Six to eight-week-old, C57BL/6 male mice purchased from Jihui Laboratory Animal Co. LTD were used in the study. […] The animals were restrained manually at the designated time points (0.083, 0.25, 0.5, 1, 2, 4 and 8 h), approximately 110 μL of blood sample was collected via facial vein into K2EDTA tubes. Three mice per time point were used resulting in a total of […]. Blood sample was put on ice and centrifuged at 2000 g for 5 mins to obtain plasma sample within 15 min. Plasma samples were stored at approximately −70° C. until analysis. A 30 μL aliquot of plasma was added with 200 μL internal standard (Diclofenac, 40 ng/mL) in 1% formic acid in MeCN. The mixture was then vortexed for 1 min and then centrifuged for 10 min at 5800 rpm. 100 μL of supernatant was transferred to a new plate. 0.5 μL of solvent was injected to LC-MS/MS. LC-MS/MS instrument used: SCIEX LC-MS/MS-45 (Triple Quad 6500+). Data was analysed by WinNonLin and Microsoft Excel.
# [2] = biological target: T2, VHL, compound preincubated with Brd4^BD2 L387A (Homo sapiens, UniProt O60885+P40337, L387A); test: Fluorescence polarization competitive binding assay, ternary complex binding; conditions: displacement of HIF-1a peptide probe, read-out: ternary binding affinity Kd
# T2 construct: N-terminally Hiss-tagged VHL (54-213); N-terminally His6-tagged Brd4-BD2^L387A (333-460) was expressed in E. coli; His6 (N, cleaved yes); made in house; host or cells: E. coli
# Protocol: Protein Expression and Purification. […] The complex was further purified by anion exchange followed by gel filtration chromatography.
# Fluorescence Polarization Binding Assay. […] All components were dissolved from stock solutions using 100 mM Bis-Tris propane, 100 mM NaCl, 1 mM DTT, pH 7.0, to yield a final assay volume of 15 μL. DMSO was added as appropriate to ensure a final concentration of 2% v/v. […] Percentage displacement values were obtained by normalization of controls were plotted against Log[Compound]. IC50 values were determined for each titration using nonlinear regression analysis with Prism (v. 9.1.0, GraphPad). […] Cooperativity values (a) for each PROTAC were calculated using the ratio: α=binary Kd (−bromodomain)/ternary Kd (+bromodomain).
# Plasma stability = assay type: in vitro ADME; conditions: mouse plasma, 37° C., over 1 h
# Protocol: Plasma Stability. Plasma stability studies were outsourced and undertaken by Shanghai ChemPartner Co., Ltd. Buffer preparation: A solution of 0.05 M sodium phosphate and 0.07 M NaCl buffer at pH 7.4 was made by dissolving 14.505 g/L Na2HPO4·12H2O, 1.483 g/L NaH2PO4·2H2O and 4.095 g/L NaCl in deionized water and the pH adjusted with phosphoric acid. Plasma preparation: Frozen mouse plasma was thawed by placing at 37° C. quickly. The thawed plasma was centrifuged at 3,000 rpm for 8 min to remove clots and the supernatant was pooled to be used as the plasma in the experiment. The plasma (pH 7.4-8.0) was stored on ice until used. […] Plasma and spiking solutions were pre-warmed at 37° C. for 5 min, then 10 μL of pre-warmed spiking solution B were added into the wells designated for all the time points (5, 15, 30, 45, 60 min). For 0-min, 400 μL of acetonitrile containing internal standards (Imipramine, Glipizide) were added to the wells of 0-min plate and then 90 μL of plasma was added. For the time points (0, 5, 15, 30, 45, 60 min), 90 μL of pre-warmed plasma was added to start timing. At 5, 15, 30, 45, 60 min, 400 μL of acetonitrile containing internal standard (Imipramine, Glipizide) were added to the wells of corresponding plates, respectively, to stop the reaction. […] Data was analysed with Microsoft Excel.
smiles,measurement,setting,value
"CC[C@@H](C(=O)OCCOCCOCCOCC(=O)N[C@H](C(=O)N1C[C@H](O)C[C@H]1C(=O)NCc1ccc(-c2scnc2C)cc1)C(C)(C)C)[C@@H]1N=C(c2ccc(Cl)cc2)c2c(sc(C)c2C)-n2c(C)nnc21 (single isomer, unassigned) [AGB1 (46)]",on-target degradation activity after pre-treatment with MLN4924,BromoTag-Brd2; 3 μM MLN4924 1 h,completely abrogated
same,on-target degradation activity after pre-treatment with ET-JQ1-OMe,BromoTag-Brd2; 10 μM ET-JQ1-OMe 1 h,A similar outcome
same,on-target degradation activity after pre-treatment with VH298,BromoTag-Brd2; 10 μM VH298 1 h,completely abrogated
same,on-target degradation activity after pre-treatment with MG132,BromoTag-Brd2; 50 μM MG132 1 h,blocked
same,F (%),[1],140%
same,Kd,[2],11 nM
same,"plasma stability, levels remaining",Plasma stability,no significant changes
